Experimental data from patent US20160257697A1, “THIOPHENE-SUBSTITUTED TETRACYCLIC COMPOUNDS AND METHODS OFUSE THEREOF FOR THE TREATMENT OF VIRAL DISEASES” (priority 2013, published 2016).
Read-outs that look alike come from different tables or passages of the source.

Legend:
Assay in all cases: microbe, parasite or virus in culture
Type in all cases: cell-based, Hepatitis C virus (HCV)
HCV replicon 1AY93H = details: Replicon Assay A
Method in brief: (§1)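 Replicon cells were seeded at 2000 cells/well with test compound in 0.5% DMSO and 5% FBS, then harvested on day 3. Replicon RNA was measured by multiplex TaqMan real-time RT-PCR, using cyclophilin RNA as the endogenous control and quantified against standard curves of HCV replicon total RNA.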

HCV replicon 1A = details: Replicon Assay A
Method in brief: as §1

HCV replicon 2B = details: Replicon Assay A
Method in brief: as §1

HCV replicon 1B = details: Replicon Assay B
Procedure: In an alternate assay (“Replicon Assay B”), 1000 cells were seeded per well in a 384-well collagen coated black plate from Greiner bio-one (Cat #781946) in 5% FBS. Inhibitors of this invention were added at 24 h post-seeding, and the plates were incubated for 3 days. Cells were subsequently lysed with Qiagen lysis buffer (Cat #1062731) to extract the RNA. HCV replicon RNA level was measured by real-time PCR using the RNA-to-CT kit from Applied Biosystem (Cat #4392656) and genotype-specific primers and probes. The amplicon was located within NS5B. […] (SEQ. ID NO. 2); the probe sequence was FAM-labeled […] (SEQ. ID NO. 3).
The real-time RT-PCR reactions were run on ABI PRISM 7900HT or Viia7 Sequence Detection System using the following program: 48° C. for 30 minutes, 95° C. for 10 minutes, 40 cycles of 95° C. for 15 sec, 60° C. for 1 minutes.
Data for replicons 1A, 1AY93H and 2B were obtained using Replicon Assay A and data for replicons 1AQ30D and 1B were obtained using Replicon Assay B.

[1] = read-out: 1A Y93H IC50, replicon 1AY93H
[2] = Hepatitis C virus, HCV replicon 1A
[3] = Hepatitis C virus, HCV replicon 1B

Compound | IC50 (HCV replicon 1AY93H; [1]) | IC50 (HCV replicon 2B; read-out: 2B IC50, replicon 2B) | IC50 (HCV replicon 1B; Hepatitis C virus, replicon 1B) | IC50 (HCV replicon 1A; replicon 1A) | also measured
COC(=O)N[C@H](C(=O)N1CCC[C@H]1c1ncc(-c2cc(F)c3c(c2)OC(c2ccc(F)s2)n2c-3cc3cc(-c4cnc([C@@H]5CCCN5C(=O)[C@@H](NC(=O)OC)C(C)C)[nH]4)ccc32)[nH]1)C(C)C (single isomer, unassigned) [Compound 13] | 2.1 nM | 3.79 nM | 2.3 pM |  | IC50 (HCV replicon 1A; Hepatitis C virus, replicon 1A): 1.9 pM
COC(=O)N[C@H](C(=O)N1CCC[C@H]1c1ncc(-c2cc(F)c3c(c2)OC(c2ccc(F)s2)n2c-3cc3cc(-c4cnc([C@@H]5CCCN5C(=O)[C@@H](NC(=O)OC)C(C)C)[nH]4)ccc32)[nH]1)C(C)C (single isomer, unassigned) [Compound 14] | 0.059 nM | 0.23 nM |  | 2 pM | IC50 (HCV replicon 1B; replicon 1B): 2.4 pM
COC(=O)N[C@H](C(=O)N1CCC[C@H]1c1ncc(-c2cc(F)c3c(c2)OC(c2cc4c(s2)CCC4)n2c-3cc3cc(-c4cnc([C@@H]5CCCN5C(=O)[C@@H](NC(=O)OC)C(C)C)[nH]4)ccc32)[nH]1)C(C)C (single isomer, unassigned) [Compound 27] |  |  | 1.4 pM |  | IC50 (HCV replicon 1AY93H; Hepatitis C virus, read-out: 1A Y93H IC50 (nM), replicon 1AY93H): 0.65 nM; IC50 (HCV replicon 1A; Hepatitis C virus, replicon 1A): 1.6 pM; IC50 (HCV replicon 2B; Hepatitis C virus, read-out: 2B IC50 (nM), replicon 2B): 1.49 nM
COC(=O)NC(C(=O)N1CCC[C@H]1c1ncc(-c2ccc3c(c2)cc2n3C(c3ccc(C4CC4)s3)Oc3cc(-c4cnc([C@@H]5CCCN5C(=O)[C@@H](NC(=O)OC)C(C)C)[nH]4)cc(F)c3-2)[nH]1)C(C)(C)F (single isomer, unassigned) [Compound 77] | 0.24 nM | 0.41 nM |  | 1.8 pM | IC50 (HCV replicon 1B; replicon 1B): 2.9 pM
CCOC(C)[C@H](NC(=O)OC)C(=O)N1CCC[C@H]1c1ncc(-c2cc(F)c3c(c2)OC(c2cc(C)c(C)s2)n2c-3cc3cc(-c4cnc([C@@H]5CCCN5C(=O)[C@@H](NC(=O)OC)C(C)C)[nH]4)ccc32)[nH]1 (single isomer, unassigned) [Compound 79] | 0.14 nM | 0.32 nM | 3.4 pM |  | IC50 (HCV replicon 1A; Hepatitis C virus, replicon 1A): 2.1 pM
COC(=O)N[C@H](C(=O)N1CCC[C@H]1c1ncc(-c2cc(F)c3c(c2)OC(c2ccc(C(C)(C)O)s2)n2c-3cc3cc(-c4cnc([C@@H]5CCCN5C(=O)[C@@H](NC(=O)OC)C(C)C)[nH]4)ccc32)[nH]1)C(C)C (single isomer, unassigned) [Compound 83] | 0.42 nM | 0.8 nM | 3.1 pM |  | IC50 (HCV replicon 1A; Hepatitis C virus, replicon 1A): 3.2 pM
COC(=O)NC(C(=O)N1CCC[C@H]1c1ncc(-c2ccc3c(c2)cc2n3C(c3ccc(C4CC4)s3)Oc3cc(-c4cnc([C@@H]5C[C@@H](F)CN5C(=O)[C@@H](NC(=O)OC)C(C)C)[nH]4)cc(F)c3-2)[nH]1)C(C)(C)F (single isomer, unassigned) [Compound 114] | 0.002 nM | 0.2 nM | 2.4 pM | 1.3 pM | 
COC(=O)NC(C(=O)N1CCC[C@H]1c1ncc(-c2ccc3c(c2)cc2n3C(c3cc(C)c(C)s3)Oc3cc(-c4cnc([C@@H]5CCCN5C(=O)[C@@H](NC(=O)OC)C5CCOCC5)[nH]4)cc(F)c3-2)[nH]1)C(C)(C)F (single isomer, unassigned) [Compound 130] | 0.24 nM | 0.24 nM | 3.6 pM | 1.7 pM | 
CCc1ccc(C2Oc3cc(-c4cnc([C@@H]5CCCN5C(=O)[C@@H](NC(=O)OC)C(C)C)[nH]4)cc(F)c3-c3cc4cc(-c5cnc([C@@H]6CCCN6C(=O)C(NC(=O)OC)C6C[C@@H](C)O[C@@H](C)C6)[nH]5)ccc4n32)s1 (single isomer, unassigned) [Compound 143] |  |  | 5.9 pM | 111 pM | 
COC(=O)NC(C(=O)N1CCC[C@H]1c1ncc(-c2cc(F)c3c(c2)OC(c2ccc(C4CC4)s2)n2c-3cc3cc(-c4cnc([C@@H]5CCCN5C(=O)[C@@H](NC(=O)OC)C5CCOCC5)[nH]4)ccc32)[nH]1)C(C)(C)F (single isomer, unassigned) [Compound 169] | 0.045 nM | 0.075 nM | 3.4 pM | 1.2 pM | 
COC(=O)NC(C(=O)N1CCC[C@H]1c1ncc(-c2ccc3c(c2)cc2n3C(c3ccc(C4CC4)s3)Oc3cc(-c4cnc([C@@H]5CCCN5C(=O)[C@@H](NC(=O)OC)C(C)C)[nH]4)cc(F)c3-2)[nH]1)C1CCOC(C)(C)C1 (single isomer, unassigned) [Compound 225] |  | 13.7 nM | 10.2 pM | 47.7 pM | 
COC(=O)NC(C(=O)N1CCC[C@H]1c1ncc(-c2ccc3c(c2)cc2n3C(c3ccc(C4CC4)s3)Oc3cc(-c4cnc([C@@H]5CCCN5C(=O)[C@@H](NC(=O)OC)C(C)C)[nH]4)cc(F)c3-2)[nH]1)C1CN(C(=O)OC)C1 (single isomer, unassigned) [Compound 228] | 0.5 nM | 0.47 nM |  | 2 pM | IC50 (HCV replicon 1B; replicon 1B): 3.8 pM
CC[C@@H]1CC(C(NC(=O)OC)C(=O)N2CCC[C@H]2c2ncc(-c3ccc4c(c3)cc3n4C(c4ccc(C5CC5)s4)Oc4cc(-c5cnc([C@@H]6CCCN6C(=O)[C@@H](NC(=O)OC)C(C)C)[nH]5)cc(F)c4-3)[nH]2)C[C@H](CC)O1 (single isomer, unassigned) [Compound 289] | 1.24 nM | 5.64 nM | 4.2 pM | 3.1 pM | 
CCc1ccc(C2Oc3cc(-c4cnc([C@@H]5CCCN5C(=O)C(NC(=O)OC)C5CCOC(C)(C)C5)[nH]4)cc(F)c3-c3cc4cc(-c5cnc([C@@H]6CCCN6C(=O)C(NC(=O)OC)C6CCOC(C)(C)C6)[nH]5)ccc4n32)s1 (single isomer, unassigned) [Compound 291] | 0.28 nM | 0.028 nM | 2.3 pM | 2.4 pM | 
CCc1ccc(C2Oc3cc(-c4c[nH]c([C@@H]5CCCN5C(=O)[C@@H](NC(=O)OC)C(C)C)n4)ccc3-c3cc4c(F)c(-c5c[nH]c([C@@H]6CCCN6C(=O)C(NC(=O)OC)C6C[C@@H](C)O[C@@H](C)C6)n5)ccc4n32)s1 (single isomer, unassigned) [Compound 361] | 0.138 nM | 0.0389 nM | 3.5 pM | 3.6 pM | 
CCc1c2n(c3ccc(-c4cnc(C5CCCN5C(=O)C(NC(=O)OC)C(C)C)[nH]4)cc13)C(c1ccc(C3CC3)s1)Oc1cc(-c3cnc(C4CCCN4C(=O)C(NC(=O)OC)C(C)C)[nH]3)cc(F)c1-2 (single isomer, unassigned) [Compound 838] |  |  |  |  | IC50 (HCV replicon 1A; HCV replicon 1A): 5.5 pM; IC50 (HCV replicon 1B; HCV replicon 1B): 1.3 pM
CCc1c2n(c3ccc(-c4cnc(C5CCCN5C(=O)C(NC(=O)OC)C(C)C)[nH]4)cc13)C(c1ccc(C3CC3)s1)Oc1cc(-c3cnc(C4CCCN4C(=O)C(NC(=O)OC)C(C)C)[nH]3)cc(F)c1-2 (single isomer, unassigned) [Compound 839] |  |  |  |  | IC50 (HCV replicon 1AY93H; HCV replicon 1A Y93H, read-out: 1A Y93H IC50): 0.865 nM; IC50 (HCV replicon 2B; HCV replicon 2B, read-out: 2B IC50): 0.971 nM; IC50 (HCV replicon 1B; HCV replicon 1B): 2.3 pM
COC(=O)N[C@H](C(=O)N1CCC[C@H]1c1ncc(-c2cc(F)c3c(c2)OC(c2ccc(C4CC4)s2)n2c-3c(C)c3cc(-c4cnc([C@@H]5CCCN5C(=O)[C@@H](NC(=O)OC)C(C)C)[nH]4)ccc32)[nH]1)C(C)C (single isomer, unassigned) [Compound 842] |  |  |  |  | IC50 (HCV replicon 1A; HCV replicon 1A): 6.6 pM; IC50 (HCV replicon 1B; HCV replicon 1B): 1.4 pM
COC(=O)N[C@H](C(=O)N1CCC[C@H]1c1ncc(-c2cc3c4c(c2)OC(c2ccc(Cl)s2)n2c-4c(c4cc(-c5cnc([C@@H]6CCCN6C(=O)[C@@H](NC(=O)OC)C(C)C)[nH]5)ccc42)CC3)[nH]1)C(C)C (stereo partly shown) [Compound 834] |  |  |  |  | IC50 (HCV replicon 1A; [2]): 84.2 pM; IC50 (HCV replicon 2B; Hepatitis C virus, read-out: 2B IC50, HCV replicon 2B): 16.7 nM; IC50 (HCV replicon 1B; [3]): 48.8 pM
CCc1c2n(c3ccc(-c4cnc([C@@H]5CCCN5C(=O)[C@@H](NC(=O)OC)C(C)C)[nH]4)cc13)C(c1ccc(Cl)s1)Oc1cc(-c3cnc([C@@H]4CCCN4C(=O)[C@@H](NC(=O)OC)C(C)C)[nH]3)cc(F)c1-2 (stereo partly shown) [Compound 837] |  |  |  |  | IC50 (HCV replicon 1AY93H; Hepatitis C virus, read-out: 1A Y93H IC50, HCV replicon 1A Y93H): 1.52 nM; IC50 (HCV replicon 1A; [2]): 2.5 pM; IC50 (HCV replicon 1B; [3]): 1.9 pM
